According to US20130236656A1, “SELF-REDUCED METAL COMPLEX INKS SOLUBLE IN POLAR PROTIC SOLVENTS AND IMPROVED CURING METHODS” (LIQUID X PRINTED METALS, INC., priority 2012, published 2013):

Settings: isolated solid

CC(C)C(=O)[O-].NCCN.[Ag+] [ethylenediamine silver isobutyrate]
hygroscopicity (hydroscopic [sic]): hydroscopic
